Laboratory results: the kinase profiling compilation of Christmann-Franck et al. (2016)

Experiments:
Experiment in all cases: radiometric filter-binding kinase assay, Kinase HotSpot
Conditions in all cases: compound 0.5 µM; ATP 10 µM
GRK4 (human) = GRK4 (human) (UniProt P32298)
DAPK2 (human) = DAPK2 (human) (UniProt Q9UIK4)
AXL (human) = AXL (human) (UniProt P30530)
HIPK1 (human) = HIPK1 (human) (UniProt Q86Z02)
MAPKAPK5 (human) = MAPKAPK5 (human) (UniProt Q8IW41)
MAP4K2 (human) = MAP4K2 (human) (UniProt Q12851)
CLK4 (human) = CLK4 (human) (UniProt Q9HAZ1)
GRK6 (human) = GRK6 (human) (UniProt P43250)
PDPK1 (human) = PDPK1 (human) (UniProt O15530)
GSK3B (human) = GSK3B (human) (UniProt P49841)
RPS6KA3 KD1 KD2 (human) = RPS6KA3 KD1 KD2 (human) (UniProt P51812)
SRMS (human) = SRMS (human) (UniProt Q9H3Y6)
TSSK2 (human) = TSSK2 (human) (UniProt Q96PF2)
TTK (human) = TTK (human) (UniProt P33981)
PAK6 (human) = PAK6 (human) (UniProt Q9NQU5)
PRKCB2 (human) = PRKCB2 (human) (UniProt P05771)
EGFR (human) = EGFR (human) (UniProt P00533)
MAPKAPK2 (human) = MAPKAPK2 (human) (UniProt P49137)
MUSK (human) = MUSK (human) (UniProt O15146)
VRK1 (human) = VRK1 (human) (UniProt Q99986)
MKNK2 (human) = MKNK2 (human) (UniProt Q9HBH9)
MAPKAPK3 (human) = MAPKAPK3 (human) (UniProt Q16644)
CDK5 CDK5R1 p35 (human) = CDK5 CDK5R1 p35 (human) (UniProt Q00535+Q15078)
MARK2 (human) = MARK2 (human) (UniProt Q7KZI7)
FER (human) = FER (human) (UniProt P16591)
CLK2 (human) = CLK2 (human) (UniProt P49760)
EPHA3 (human) = EPHA3 (human) (UniProt P29320)
STK39 (human) = STK39 (human) (UniProt Q9UEW8)
DCLK2 (human) = DCLK2 (human) (UniProt Q8N568)
MARK4 (human) = MARK4 (human) (UniProt Q96L34)
CDK2 CCNE1 (human) = CDK2 CCNE1 (human) (UniProt P24941+P24864)
CAMK2D (human) = CAMK2D (human) (UniProt Q13557)
MAP4K4 (human) = MAP4K4 (human) (UniProt O95819)
TAOK3 (human) = TAOK3 (human) (UniProt Q9H2K8)
NLK (human) = NLK (human) (UniProt Q9UBE8)
HIPK4 (human) = HIPK4 (human) (UniProt Q8NE63)
LIMK1 (human) = LIMK1 (human) (UniProt P53667)
EPHB1 (human) = EPHB1 (human) (UniProt P54762)
EPHA2 (human) = EPHA2 (human) (UniProt P29317)
PRKCB1 (human) = PRKCB1 (human) (UniProt P05771)
PAK1 (human) = PAK1 (human) (UniProt Q13153)
LCK (human) = LCK (human) (UniProt P06239)

Sequence of MAPKAPK5 (human) (Q8IW41 whole entry, looked up): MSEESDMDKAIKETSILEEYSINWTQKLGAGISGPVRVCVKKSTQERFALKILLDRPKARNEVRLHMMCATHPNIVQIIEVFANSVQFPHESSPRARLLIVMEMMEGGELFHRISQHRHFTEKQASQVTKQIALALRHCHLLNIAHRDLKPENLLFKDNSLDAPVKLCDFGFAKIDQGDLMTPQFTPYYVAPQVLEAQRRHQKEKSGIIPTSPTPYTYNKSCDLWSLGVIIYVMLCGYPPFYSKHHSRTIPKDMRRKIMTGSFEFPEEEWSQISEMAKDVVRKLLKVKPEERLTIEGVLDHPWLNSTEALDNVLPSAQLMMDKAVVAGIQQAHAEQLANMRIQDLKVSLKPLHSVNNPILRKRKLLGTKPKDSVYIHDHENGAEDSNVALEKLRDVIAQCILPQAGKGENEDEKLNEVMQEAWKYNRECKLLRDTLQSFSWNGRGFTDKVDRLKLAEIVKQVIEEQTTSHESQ
Sequence of CLK4 (human) (Q9HAZ1 whole entry, looked up): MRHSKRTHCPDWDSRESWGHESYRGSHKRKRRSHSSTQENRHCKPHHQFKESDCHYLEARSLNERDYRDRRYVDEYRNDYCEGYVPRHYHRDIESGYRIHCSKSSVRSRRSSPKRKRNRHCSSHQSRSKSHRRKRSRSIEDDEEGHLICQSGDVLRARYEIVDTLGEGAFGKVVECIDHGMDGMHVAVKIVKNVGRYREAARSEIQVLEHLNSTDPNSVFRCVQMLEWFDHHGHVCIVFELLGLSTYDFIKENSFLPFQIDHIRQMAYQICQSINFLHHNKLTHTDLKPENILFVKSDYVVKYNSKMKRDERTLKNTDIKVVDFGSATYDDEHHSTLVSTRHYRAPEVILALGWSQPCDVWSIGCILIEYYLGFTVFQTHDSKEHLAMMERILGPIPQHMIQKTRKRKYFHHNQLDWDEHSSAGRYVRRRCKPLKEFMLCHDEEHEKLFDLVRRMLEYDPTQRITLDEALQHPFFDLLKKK
Sequence of GRK4 (human) (P32298 whole entry, looked up): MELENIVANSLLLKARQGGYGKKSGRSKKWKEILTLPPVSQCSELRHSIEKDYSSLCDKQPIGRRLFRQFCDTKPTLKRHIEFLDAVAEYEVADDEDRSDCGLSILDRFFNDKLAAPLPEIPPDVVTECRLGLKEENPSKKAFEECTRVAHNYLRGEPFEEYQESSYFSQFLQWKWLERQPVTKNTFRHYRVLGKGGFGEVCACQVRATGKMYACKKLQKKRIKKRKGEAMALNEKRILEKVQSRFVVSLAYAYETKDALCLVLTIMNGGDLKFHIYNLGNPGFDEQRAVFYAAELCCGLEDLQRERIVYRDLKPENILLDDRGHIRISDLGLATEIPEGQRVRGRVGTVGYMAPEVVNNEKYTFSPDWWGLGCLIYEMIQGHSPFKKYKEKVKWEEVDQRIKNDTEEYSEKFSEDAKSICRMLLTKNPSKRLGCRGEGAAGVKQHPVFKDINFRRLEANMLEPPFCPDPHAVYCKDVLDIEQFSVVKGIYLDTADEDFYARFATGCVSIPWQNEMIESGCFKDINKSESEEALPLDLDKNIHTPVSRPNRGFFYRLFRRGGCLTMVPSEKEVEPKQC
Sequence of EPHA2 (human) (P29317 whole entry, looked up): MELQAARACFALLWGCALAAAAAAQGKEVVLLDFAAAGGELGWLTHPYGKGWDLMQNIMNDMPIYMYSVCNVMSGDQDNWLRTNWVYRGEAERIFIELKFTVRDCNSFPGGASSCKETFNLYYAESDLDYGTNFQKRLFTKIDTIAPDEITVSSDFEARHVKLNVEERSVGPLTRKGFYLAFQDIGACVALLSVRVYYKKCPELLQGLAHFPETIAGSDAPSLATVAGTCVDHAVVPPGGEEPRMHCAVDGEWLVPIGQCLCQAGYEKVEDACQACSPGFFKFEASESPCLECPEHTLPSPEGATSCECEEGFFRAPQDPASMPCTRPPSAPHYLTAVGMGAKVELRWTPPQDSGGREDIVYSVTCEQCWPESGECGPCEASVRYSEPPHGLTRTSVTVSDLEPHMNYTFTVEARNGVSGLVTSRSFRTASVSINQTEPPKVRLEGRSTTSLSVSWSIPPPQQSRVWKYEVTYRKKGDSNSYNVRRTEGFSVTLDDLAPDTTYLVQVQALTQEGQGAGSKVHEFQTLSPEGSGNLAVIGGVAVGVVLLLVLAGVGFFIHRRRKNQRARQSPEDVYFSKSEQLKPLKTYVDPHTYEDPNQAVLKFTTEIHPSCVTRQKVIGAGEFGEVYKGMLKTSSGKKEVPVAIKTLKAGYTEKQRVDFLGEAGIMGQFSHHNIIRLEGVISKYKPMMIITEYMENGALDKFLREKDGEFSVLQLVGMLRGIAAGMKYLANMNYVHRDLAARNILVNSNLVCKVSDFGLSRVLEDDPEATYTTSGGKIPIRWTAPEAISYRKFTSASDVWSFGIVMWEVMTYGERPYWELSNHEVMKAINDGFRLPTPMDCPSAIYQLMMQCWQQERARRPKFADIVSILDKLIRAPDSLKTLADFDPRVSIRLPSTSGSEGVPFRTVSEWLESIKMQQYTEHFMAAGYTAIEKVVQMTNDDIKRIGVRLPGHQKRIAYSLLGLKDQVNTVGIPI
Sequence of DAPK2 (human) (Q9UIK4 whole entry, looked up): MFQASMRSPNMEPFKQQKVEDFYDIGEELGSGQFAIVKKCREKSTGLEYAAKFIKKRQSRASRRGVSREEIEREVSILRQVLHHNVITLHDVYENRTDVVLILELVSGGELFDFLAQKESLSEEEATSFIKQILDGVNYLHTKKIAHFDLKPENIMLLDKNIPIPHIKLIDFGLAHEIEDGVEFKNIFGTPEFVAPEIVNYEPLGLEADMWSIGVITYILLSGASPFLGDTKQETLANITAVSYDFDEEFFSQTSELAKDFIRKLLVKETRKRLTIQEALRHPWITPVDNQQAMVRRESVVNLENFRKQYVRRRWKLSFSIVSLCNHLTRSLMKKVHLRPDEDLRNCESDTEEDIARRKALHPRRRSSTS
Sequence of CLK2 (human) (P49760 whole entry, looked up): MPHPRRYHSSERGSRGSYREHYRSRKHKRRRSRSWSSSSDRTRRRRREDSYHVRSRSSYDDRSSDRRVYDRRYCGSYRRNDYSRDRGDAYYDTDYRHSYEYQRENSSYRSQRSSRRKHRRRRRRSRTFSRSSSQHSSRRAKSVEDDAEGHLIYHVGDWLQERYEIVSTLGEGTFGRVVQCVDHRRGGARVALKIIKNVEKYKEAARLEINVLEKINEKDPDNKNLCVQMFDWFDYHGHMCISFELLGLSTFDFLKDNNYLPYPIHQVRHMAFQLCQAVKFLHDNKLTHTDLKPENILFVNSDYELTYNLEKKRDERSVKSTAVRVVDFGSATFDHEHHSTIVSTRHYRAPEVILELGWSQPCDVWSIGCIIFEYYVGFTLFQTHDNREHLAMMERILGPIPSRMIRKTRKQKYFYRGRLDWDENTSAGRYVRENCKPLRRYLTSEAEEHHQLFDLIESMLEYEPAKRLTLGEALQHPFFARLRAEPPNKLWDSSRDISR
Sequence of TAOK3 (human) (Q9H2K8 whole entry, looked up): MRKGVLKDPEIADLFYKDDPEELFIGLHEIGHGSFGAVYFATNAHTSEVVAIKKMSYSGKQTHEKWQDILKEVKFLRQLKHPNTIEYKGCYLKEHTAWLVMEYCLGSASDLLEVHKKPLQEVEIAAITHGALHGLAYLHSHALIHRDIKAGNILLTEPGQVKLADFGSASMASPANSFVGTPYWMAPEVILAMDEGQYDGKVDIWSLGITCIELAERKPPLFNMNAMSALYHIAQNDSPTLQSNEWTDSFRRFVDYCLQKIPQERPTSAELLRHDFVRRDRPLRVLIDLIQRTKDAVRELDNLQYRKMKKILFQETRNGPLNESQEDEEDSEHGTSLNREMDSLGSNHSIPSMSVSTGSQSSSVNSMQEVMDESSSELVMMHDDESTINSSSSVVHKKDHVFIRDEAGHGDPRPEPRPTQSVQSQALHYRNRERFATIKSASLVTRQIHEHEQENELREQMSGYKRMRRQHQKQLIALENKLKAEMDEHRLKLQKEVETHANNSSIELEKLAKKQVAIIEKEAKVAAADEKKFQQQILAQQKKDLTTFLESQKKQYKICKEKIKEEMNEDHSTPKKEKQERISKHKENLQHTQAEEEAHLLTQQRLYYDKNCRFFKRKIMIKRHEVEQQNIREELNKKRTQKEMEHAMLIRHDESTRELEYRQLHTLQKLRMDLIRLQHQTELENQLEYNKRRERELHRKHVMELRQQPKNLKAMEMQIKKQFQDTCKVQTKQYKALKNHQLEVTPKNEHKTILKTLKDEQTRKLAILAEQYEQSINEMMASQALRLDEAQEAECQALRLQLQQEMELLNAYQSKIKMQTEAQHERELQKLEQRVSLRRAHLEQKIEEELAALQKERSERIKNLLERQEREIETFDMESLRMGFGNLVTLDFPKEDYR
Sequence of CDK2 CCNE1 (human) (P24864 whole entry, looked up, other chains not shown): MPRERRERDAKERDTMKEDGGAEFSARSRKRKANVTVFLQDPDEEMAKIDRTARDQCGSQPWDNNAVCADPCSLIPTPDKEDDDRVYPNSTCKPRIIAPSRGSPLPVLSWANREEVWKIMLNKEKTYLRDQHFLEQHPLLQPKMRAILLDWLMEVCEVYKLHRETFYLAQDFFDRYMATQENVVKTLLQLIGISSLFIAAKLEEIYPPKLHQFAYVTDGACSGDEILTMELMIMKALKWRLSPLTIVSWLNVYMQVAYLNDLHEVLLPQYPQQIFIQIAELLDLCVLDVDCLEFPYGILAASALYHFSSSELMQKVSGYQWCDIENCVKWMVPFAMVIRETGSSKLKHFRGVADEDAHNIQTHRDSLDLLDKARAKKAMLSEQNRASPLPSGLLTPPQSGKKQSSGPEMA

Compound `CC(C)(C)c1cc(C=C(C#N)C#N)cc(Br)c1O` has a residual activity (GRK4 (human)) of 101%, a residual activity (DAPK2 (human)) of 108% and a residual activity (AXL (human)) of 103%. For the same compound, the residual activity (HIPK1 (human)) was 104%, the residual activity (MAPKAPK5 (human)) was 97.4% and the residual activity (MAP4K2 (human)) was 113%. For the same compound, the residual activity (CLK4 (human)) was 88.6%, the residual activity (GRK6 (human)) was 94.6% and the residual activity (PDPK1 (human)) was 102%. It also gave a residual activity (GSK3B (human)) of 107%, a residual activity (RPS6KA3 KD1 KD2 (human)) of 92.2% and a residual activity (SRMS (human)) of 98.4%. The residual activity (TSSK2 (human)) was 96.6%, the residual activity (TTK (human)) was 101% and the residual activity (PAK6 (human)) was 101%. It also gave a residual activity (PRKCB2 (human)) of 129%, a residual activity (EGFR (human)) of 106% and a residual activity (MAPKAPK2 (human)) of 92.3%. The residual activity (MUSK (human)) was 103%, the residual activity (VRK1 (human)) was 86.4% and the residual activity (MKNK2 (human)) was 100%. It also gave a residual activity (MAPKAPK3 (human)) of 103%, a residual activity (CDK5 CDK5R1 p35 (human)) of 102% and a residual activity (MARK2 (human)) of 81.6%. The residual activity (FER (human)) was 100%, the residual activity (CLK2 (human)) was 104% and the residual activity (EPHA3 (human)) was 102%. It also gave a residual activity (STK39 (human)) of 87.6%, a residual activity (DCLK2 (human)) of 109% and a residual activity (MARK4 (human)) of 103%. It also gave a residual activity (CDK2 CCNE1 (human)) of 77.6%, a residual activity (CAMK2D (human)) of 96% and a residual activity (MAP4K4 (human)) of 96.2%. It also gave a residual activity (TAOK3 (human)) of 122%, a residual activity (NLK (human)) of 93.6% and a residual activity (HIPK4 (human)) of 103%. For the same compound, the residual activity (LIMK1 (human)) was 98.5%, the residual activity (EPHB1 (human)) was 114% and the residual activity (EPHA2 (human)) was 105%. The residual activity (PRKCB1 (human)) was 102%, the residual activity (PAK1 (human)) was 89.9% and the residual activity (LCK (human)) was 87.8%.

`COc1cc2ncnc(Nc3ccc(OCc4ccccc4)cc3)c2cc1OC` gave a residual activity (GRK4 (human)) of 106%, a residual activity (DAPK2 (human)) of 99.9% and a residual activity (AXL (human)) of 94.8%. It also gave a residual activity (HIPK1 (human)) of 104%, a residual activity (MAPKAPK5 (human)) of 100% and a residual activity (MAP4K2 (human)) of 114%. For the same compound, the residual activity (CLK4 (human)) was 99.5%, the residual activity (GRK6 (human)) was 104% and the residual activity (PDPK1 (human)) was 103%. The residual activity (GSK3B (human)) was 119%, the residual activity (RPS6KA3 KD1 KD2 (human)) was 103% and the residual activity (SRMS (human)) was 104%. For the same compound, the residual activity (TSSK2 (human)) was 104%, the residual activity (TTK (human)) was 96.8% and the residual activity (PAK6 (human)) was 95.4%. It also gave a residual activity (PRKCB2 (human)) of 106%, a residual activity (EGFR (human)) of 21.3% and a residual activity (MAPKAPK2 (human)) of 106%. It also gave a residual activity (MUSK (human)) of 99.3%, a residual activity (VRK1 (human)) of 89% and a residual activity (MKNK2 (human)) of 88.1%. For the same compound, the residual activity (MAPKAPK3 (human)) was 102%, the residual activity (CDK5 CDK5R1 p35 (human)) was 103% and the residual activity (MARK2 (human)) was 108%. The residual activity (FER (human)) was 90.8%, the residual activity (CLK2 (human)) was 102% and the residual activity (EPHA3 (human)) was 98.1%. It also gave a residual activity (STK39 (human)) of 95.8%, a residual activity (DCLK2 (human)) of 102% and a residual activity (MARK4 (human)) of 99.5%. It also gave a residual activity (CDK2 CCNE1 (human)) of 96.7%, a residual activity (CAMK2D (human)) of 95.8% and a residual activity (MAP4K4 (human)) of 103%. For the same compound, the residual activity (TAOK3 (human)) was 91.7%, the residual activity (NLK (human)) was 96.5% and the residual activity (HIPK4 (human)) was 100%. For the same compound, the residual activity (LIMK1 (human)) was 95.4%, the residual activity (EPHB1 (human)) was 101% and the residual activity (EPHA2 (human)) was 106%. For the same compound, the residual activity (PRKCB1 (human)) was 97.4%, the residual activity (PAK1 (human)) was 93.2% and the residual activity (LCK (human)) was 42.2%.

`COc1ccc(C(=O)Nc2sc3c(c2C(N)=O)CCCC3)cc1OC` was tested, and the residual activity (GRK4 (human)) was 95.1%, the residual activity (DAPK2 (human)) was 106% and the residual activity (AXL (human)) was 84.4%. The residual activity (HIPK1 (human)) was 90.2%, the residual activity (MAPKAPK5 (human)) was 86.4% and the residual activity (MAP4K2 (human)) was 106%. For the same compound, the residual activity (CLK4 (human)) was 86.8%, the residual activity (GRK6 (human)) was 98.5% and the residual activity (PDPK1 (human)) was 87.8%. It also gave a residual activity (GSK3B (human)) of 97.7%, a residual activity (RPS6KA3 KD1 KD2 (human)) of 93% and a residual activity (SRMS (human)) of 91%. For the same compound, the residual activity (TSSK2 (human)) was 94.6%, the residual activity (TTK (human)) was 95.6% and the residual activity (PAK6 (human)) was 85.7%. The residual activity (PRKCB2 (human)) was 93.5%, the residual activity (EGFR (human)) was 99.9% and the residual activity (MAPKAPK2 (human)) was 104%. For the same compound, the residual activity (MUSK (human)) was 79.4%, the residual activity (VRK1 (human)) was 95.3% and the residual activity (MKNK2 (human)) was 78.7%. The residual activity (MAPKAPK3 (human)) was 97.2%, the residual activity (CDK5 CDK5R1 p35 (human)) was 90.8% and the residual activity (MARK2 (human)) was 98.7%. It also gave a residual activity (FER (human)) of 89.8%, a residual activity (CLK2 (human)) of 86.5% and a residual activity (EPHA3 (human)) of 108%. It also gave a residual activity (STK39 (human)) of 101%, a residual activity (DCLK2 (human)) of 98.6% and a residual activity (MARK4 (human)) of 86.5%. For the same compound, the residual activity (CDK2 CCNE1 (human)) was 94.6%, the residual activity (CAMK2D (human)) was 104% and the residual activity (MAP4K4 (human)) was 79.9%. The residual activity (TAOK3 (human)) was 100%, the residual activity (NLK (human)) was 93.7% and the residual activity (HIPK4 (human)) was 103%. The residual activity (LIMK1 (human)) was 93.2%, the residual activity (EPHB1 (human)) was 95% and the residual activity (EPHA2 (human)) was 102%. The residual activity (PRKCB1 (human)) was 91.8%, the residual activity (PAK1 (human)) was 94% and the residual activity (LCK (human)) was 93.8%.
